According to the NIST ThermoML archive (doi:10.1021/acs.jced.7b01053):
Values joined by “and” are separate entries in the source; they are usually repeats but may differ in a detail not shown here. Identical values can stand only once. Numbers after ± are expanded uncertainties.

Test: mn = molality of the nth substance listed, in mol/kg
Settings: 293 K, 100 kPa, Liquid, Alternating current cell with electrodes

CCCCC(=O)[O-].[NH3+]CCO [2-hydroxy ethylammonium pentanoate] + O
Settings	electrical conductivity [S/m]
m1 = 0.01913	0.108 ± 0.011
m1 = 0.01918	0.068 ± 0.014
m1 = 0.03718	0.19 ± 0.015
m1 = 0.03781	0.126 ± 0.013
m1 = 0.05621	0.26 ± 0.019
m1 = 0.05801	0.176 ± 0.014
m1 = 0.07457	0.309 ± 0.047
m1 = 0.07759	0.244 ± 0.046
m1 = 0.09498	0.365 ± 0.04
m1 = 0.09926	0.296 ± 0.02
m1 = 0.1135	0.412 ± 0.029
m1 = 0.1187	0.344 ± 0.024
m1 = 0.1336	0.48 ± 0.035
m1 = 0.1402	0.393 ± 0.028
m1 = 0.152	0.526 ± 0.039
m1 = 0.1594	0.439 ± 0.031
m1 = 0.1718	0.578 ± 0.044
m1 = 0.1796	0.483 ± 0.035
m1 = 0.1899	0.625 ± 0.049
m1 = 0.1981	0.523 ± 0.039
m1 = 0.2067	0.661 ± 0.055
m1 = 0.2174	0.664 ± 0.053
m1 = 0.224	0.701 ± 0.058
m1 = 0.2348	0.597 ± 0.046
m1 = 0.24	0.739 ± 0.062
m1 = 0.2529	0.637 ± 0.05
m1 = 0.2565	0.776 ± 0.066
m1 = 0.2697	0.669 ± 0.13
m1 = 0.272	0.809 ± 0.14
m1 = 0.2867	0.704 ± 0.058
m1 = 0.2875	0.844 ± 0.074
m1 = 0.302	0.875 ± 0.078
m1 = 0.3024	0.734 ± 0.061
m1 = 0.3165	0.904 ± 0.083
m1 = 0.3181	0.759 ± 0.065
m1 = 0.3299	0.93 ± 0.13
m1 = 0.3329	0.786 ± 0.068
m1 = 0.3434	0.957 ± 0.09
m1 = 0.3474	0.812 ± 0.071
m1 = 0.3561	0.983 ± 0.093
m1 = 0.3608	0.832 ± 0.073
m1 = 0.3685	1.01 ± 0.097
m1 = 0.3744	0.855 ± 0.076
m1 = 0.38	1.03 ± 0.1
m1 = 0.3866	0.876 ± 0.078
m1 = 0.3914	1.05 ± 0.1
m1 = 0.3988	0.895 ± 0.081
m1 = 0.402	1.07 ± 0.11
m1 = 0.4101	0.917 ± 0.084
m1 = 0.4126	1.09 ± 0.11
m1 = 0.4215	0.925 ± 0.085
m1 = 0.4221	1.11 ± 0.11
m1 = 0.4316	1.13 ± 0.11
m1 = 0.4318	0.94 ± 0.087
m1 = 0.4404	1.14 ± 0.12
m1 = 0.4421	0.957 ± 0.089
m1 = 0.4517	0.971 ± 0.091

CCC(=O)[O-].C[NH2+]CCO [2-hydroxy-N-methylethanaminium propionate] + O
Settings	electrical conductivity [S/m]
m1 = 0.01487	0.066 ± 0.009
m1 = 0.0155	0.073 ± 0.008
m1 = 0.03159	0.133 ± 0.01
m1 = 0.03183	0.139 ± 0.011
m1 = 0.04881	0.195 ± 0.014
m1 = 0.0489	0.202 ± 0.014
m1 = 0.06492	0.266 ± 0.018
m1 = 0.06527	0.277 ± 0.019
m1 = 0.08046	0.329 ± 0.022
m1 = 0.08214	0.323 ± 0.022
m1 = 0.09748	0.384 ± 0.027
m1 = 0.09889	0.378 ± 0.026
m1 = 0.1136	0.436 ± 0.031
m1 = 0.1159	0.427 ± 0.031
m1 = 0.1305	0.487 ± 0.036
m1 = 0.1324	0.476 ± 0.035
m1 = 0.1464	0.536 ± 0.041
m1 = 0.1495	0.523 ± 0.04
m1 = 0.1622	0.604 ± 0.053
m1 = 0.1651	0.568 ± 0.05
m1 = 0.1776	0.648 ± 0.052
m1 = 0.1814	0.613 ± 0.048
m1 = 0.1935	0.69 ± 0.056
m1 = 0.1966	0.654 ± 0.052
m1 = 0.2081	0.727 ± 0.061
m1 = 0.2121	0.694 ± 0.057
m1 = 0.223	0.764 ± 0.065
m1 = 0.2264	0.702 ± 0.058
m1 = 0.237	0.798 ± 0.069
m1 = 0.2408	0.721 ± 0.06
m1 = 0.25	0.829 ± 0.072
m1 = 0.2542	0.723 ± 0.061
m1 = 0.2632	0.872 ± 0.079
m1 = 0.2677	0.786 ± 0.068
m1 = 0.2756	0.908 ± 0.083
m1 = 0.28	0.814 ± 0.071
m1 = 0.2879	0.933 ± 0.086
m1 = 0.2922	0.834 ± 0.073
m1 = 0.2994	0.957 ± 0.089
m1 = 0.3036	0.86 ± 0.077
m1 = 0.3106	0.98 ± 0.093
m1 = 0.3149	0.906 ± 0.082
m1 = 0.3211	1 ± 0.095
m1 = 0.3255	0.923 ± 0.085
m1 = 0.3317	1.02 ± 0.098
m1 = 0.3357	0.946 ± 0.088
m1 = 0.3415	1.04 ± 0.1
m1 = 0.3454	0.967 ± 0.091
m1 = 0.3511	1.06 ± 0.1
m1 = 0.355	0.987 ± 0.093
m1 = 0.3602	1.08 ± 0.11
m1 = 0.364	1.01 ± 0.096
m1 = 0.3691	1.09 ± 0.11
m1 = 0.3726	1.03 ± 0.099
m1 = 0.3774	1.11 ± 0.11
m1 = 0.3808	1.05 ± 0.1
m1 = 0.3856	1.13 ± 0.12
m1 = 0.3885	1.05 ± 0.1
m1 = 0.3933	1.15 ± 0.12
m1 = 0.396	1.07 ± 0.11
m1 = 0.4009	1.17 ± 0.12
m1 = 0.4032	1.09 ± 0.11
m1 = 0.4079	1.19 ± 0.12
m1 = 0.4098	1.09 ± 0.11
m1 = 0.4148	1.21 ± 0.13
m1 = 0.4165	1.11 ± 0.11
m1 = 0.4227	1.12 ± 0.11

CCCCC(=O)[O-].C[NH2+]CCO [2-hydroxy-N-methylethanaminium pentanoate] + O
Settings	electrical conductivity [S/m]
m1 = 0.01138	0.049 ± 0.01
m1 = 0.01396	0.062 ± 0.011
m1 = 0.02431	0.098 ± 0.009
m1 = 0.02742	0.113 ± 0.009
m1 = 0.03923	0.149 ± 0.014
m1 = 0.0421	0.165 ± 0.011
m1 = 0.05224	0.191 ± 0.013
m1 = 0.05579	0.209 ± 0.023
m1 = 0.0607	0.269 ± 0.017
m1 = 0.06705	0.238 ± 0.015
m1 = 0.08075	0.293 ± 0.023
m1 = 0.08328	0.31 ± 0.024
m1 = 0.09553	0.335 ± 0.022
m1 = 0.09605	0.33 ± 0.022
m1 = 0.1092	0.375 ± 0.027
m1 = 0.1095	0.408 ± 0.029
m1 = 0.1224	0.445 ± 0.032
m1 = 0.124	0.416 ± 0.029
m1 = 0.1358	0.479 ± 0.035
m1 = 0.1372	0.449 ± 0.032
m1 = 0.1484	0.513 ± 0.046
m1 = 0.1505	0.485 ± 0.043
m1 = 0.1608	0.544 ± 0.055
m1 = 0.1632	0.498 ± 0.037
m1 = 0.1727	0.572 ± 0.044
m1 = 0.1759	0.527 ± 0.039
m1 = 0.1844	0.597 ± 0.046
m1 = 0.1879	0.551 ± 0.042
m1 = 0.1947	0.612 ± 0.048
m1 = 0.1999	0.578 ± 0.044
m1 = 0.2059	0.635 ± 0.05
m1 = 0.2113	0.602 ± 0.047
m1 = 0.2164	0.656 ± 0.052
m1 = 0.2226	0.62 ± 0.048
m1 = 0.226	0.677 ± 0.055
m1 = 0.2329	0.642 ± 0.051
m1 = 0.2359	0.697 ± 0.057
m1 = 0.2427	0.663 ± 0.053
m1 = 0.2451	0.709 ± 0.058
m1 = 0.2523	0.682 ± 0.055
m1 = 0.2541	0.727 ± 0.06
m1 = 0.262	0.701 ± 0.057
m1 = 0.2625	0.744 ± 0.062
m1 = 0.2703	0.76 ± 0.064
m1 = 0.2709	0.717 ± 0.059
m1 = 0.2783	0.776 ± 0.067
m1 = 0.2797	0.735 ± 0.062
m1 = 0.2853	0.79 ± 0.068
m1 = 0.2882	0.75 ± 0.063
m1 = 0.2929	0.804 ± 0.069
m1 = 0.2964	0.766 ± 0.065
m1 = 0.2998	0.818 ± 0.071
m1 = 0.304	0.781 ± 0.067
m1 = 0.3065	0.83 ± 0.073
m1 = 0.3114	0.794 ± 0.068
m1 = 0.3129	0.842 ± 0.074
m1 = 0.3184	0.808 ± 0.07
m1 = 0.3191	0.853 ± 0.076
m1 = 0.3249	0.868 ± 0.077
m1 = 0.3255	0.819 ± 0.071
m1 = 0.3307	0.88 ± 0.08
m1 = 0.3317	0.834 ± 0.074
m1 = 0.336	0.893 ± 0.091
m1 = 0.3378	0.847 ± 0.084
m1 = 0.3413	1.04 ± 0.1
m1 = 0.3437	0.858 ± 0.083
m1 = 0.3493	0.87 ± 0.078
m1 = 0.3546	0.882 ± 0.079

CC(=O)[O-].OCC[NH2+]CCO [2,2'-azanediylbis(ethanol) acetate] + O
Settings	electrical conductivity
m1 = 0.02102	0.103 ± 0.01 S/m
m1 = 0.02229	0.092 ± 0.011 S/m
m1 = 0.0413	0.189 ± 0.011 S/m
m1 = 0.04556	0.185 ± 0.011 S/m
m1 = 0.06489	0.299 ± 0.021 S/m
m1 = 0.06982	0.299 ± 0.021 S/m
m1 = 0.08642	0.38 ± 0.027 S/m
m1 = 0.0929	0.387 ± 0.027 S/m
m1 = 0.11	0.471 ± 0.034 S/m
m1 = 0.1182	0.481 ± 0.035 S/m
m1 = 0.133	0.551 ± 0.042 S/m
m1 = 0.1442	0.574 ± 0.044 S/m
m1 = 0.1566	0.637 ± 0.051 S/m
m1 = 0.17	0.664 ± 0.053 S/m
m1 = 0.1784	0.715 ± 0.059 S/m
m1 = 0.1932	0.749 ± 0.063 S/m
m1 = 0.2015	0.79 ± 0.068 S/m
m1 = 0.2176	0.822 ± 0.072 S/m
m1 = 0.2233	0.87 ± 0.078 S/m
m1 = 0.2404	0.892 ± 0.081 S/m
m1 = 0.2459	0.947 ± 0.088 S/m
m1 = 0.2633	0.966 ± 0.094 S/m
m1 = 0.2671	1.01 ± 0.1 S/m
m1 = 0.2853	1.03 ± 0.1 S/m
m1 = 0.2885	1.08 ± 0.11 S/m
m1 = 0.3076	1.11 ± 0.11 S/m
m1 = 0.3083	1.14 ± 0.12 S/m
m1 = 0.3285	1.16 S/m and 1.2 S/m
m1 = 0.3471	1.26 ± 0.14 S/m
m1 = 0.3495	1.22 ± 0.13 S/m
m1 = 0.3658	1.32 ± 0.15 S/m
m1 = 0.3689	1.27 ± 0.14 S/m
m1 = 0.3832	1.37 ± 0.15 S/m
m1 = 0.3886	1.33 ± 0.15 S/m
m1 = 0.4004	1.42 ± 0.16 S/m
m1 = 0.4068	1.38 ± 0.15 S/m
m1 = 0.4163	1.46 ± 0.17 S/m
m1 = 0.4248	1.43 ± 0.16 S/m
m1 = 0.4322	1.51 ± 0.18 S/m
m1 = 0.4417	1.47 ± 0.17 S/m
m1 = 0.4472	1.55 ± 0.19 S/m
m1 = 0.4583	1.51 ± 0.18 S/m
m1 = 0.4617	1.59 ± 0.19 S/m
m1 = 0.4738	1.56 ± 0.19 S/m
m1 = 0.4751	1.64 ± 0.2 S/m
m1 = 0.4881	1.68 ± 0.21 S/m
m1 = 0.489	1.61 ± 0.2 S/m
m1 = 0.5005	1.73 ± 0.23 S/m
m1 = 0.5032	1.65 ± 0.2 S/m
m1 = 0.5129	1.76 ± 0.23 S/m
m1 = 0.5172	1.68 ± 0.21 S/m
m1 = 0.5243	1.8 ± 0.23 S/m
m1 = 0.5302	1.7 ± 0.22 S/m
m1 = 0.5355	1.83 ± 0.24 S/m
m1 = 0.5436	1.73 ± 0.22 S/m
m1 = 0.5561	1.76 ± 0.23 S/m
